Our source for the GI50 and DC50 values is patent US12606533B2, “3-phenylpropylamine derivative” (DAIICHI SANKYO COMPANY, LIMITED, priority 2023, dated 2026).

The subject of assay [1] is NCI-H295R cells. Put plainly: Proliferation inhibitory action on NCI-H295R (CellTiter-Glo, 7 days). The assay is classed as cell-based, human. The note with it: Homo sapiens, NCI-H295R, 168 h. The procedure: DMSO solutions of each compound were serially diluted with DMSO using a D300e Digital Dispenser (TECAN), and added to a 384-well plate (Thermo Fisher Scientific Inc.). NCI-H295R cells were seeded in a 384-well plate at 2×10^3 cells/40 μL/well and cultured for 7 days in a 37° C., 5% CO2 incubator. […] On the first day of culture (day 0) and the seventh day of culture (day 7), 10 μL/well of CellTiter-Glo (registered trademark) 2.0 Assay (Promega) was added, and the luminescence signal was detected using a multimode plate reader (EnVision, PerkinElmer). The cell proliferation rate was calculated from the luminescence amount on the day of compound addition (CO), the luminescence amount of the compound-free group after 7 days of culture (C7), and the luminescence amount of the compound-added group (T7), based on the following formula.
A general note: Cellular ATP, detected with luciferase, serves as a proxy for viable cell number.

In assay [2] the target is T1, SF-1 (Homo sapiens, UniProt Q13285).
T1 construct: NCI-H295R SF-1-HiBiT cells with HiBiT tag knocked in at the endogenous SF1 locus; host or cells: NCI-H295R SF-1-HiBiT (knock-in at endogenous locus)
Kind of assay: SF1 degradation induction in NCI-H295R SF-1-HiBiT cells (HiBiT DC50). The assay is classed as cell-based. The following applies: 24 hr, concentration that induces 50% degradation of SF-1. The procedure: NCI-H295R SF-1-HiBiT cells were seeded in a 384-well plate (Thermo Fisher Scientific Inc.) at 1×10^4 cells/50 μL/well and cultured at 37° C. in a 5% CO2 incubator for 24 hr. DMSO solutions of each compound were serially diluted with DMSO using a D300e Digital Dispenser (TECAN), added to a 384-well plate, and cultured in a 5% CO2 incubator at 37° C. for 24 hr. […] After completion of culture, the medium was discarded, and Nano-Glo (registered trade mark) HiBiT Lytic Detection System (Promega, Cat. No. N3040) was added at 20 μL/well and stirred with a plate mixer. Luminescence signals were then detected using a multimode plate reader (EnVision Xcite, PerkinElmer). The SF-1 protein degradation rate was calculated from the amount of luminescence (C) in the compound-free group and the amount of luminescence (T) in the compound-added group, based on the following formula.
The obtained data was analyzed using GraphPad Prism9 (GraphPad Software Inc.) or Genedata Screener (Genedata AG) to calculate the concentration that induces 50% degradation of SF-1 (DC50 value).
(HiBiT is a short tag that completes a luciferase, so light tracks the accessible tagged protein.)

As usually defined, the GI50 is the concentration giving 50% growth inhibition. A higher GI50 goes with less potent growth inhibition. The term DC50 denotes the midpoint of the concentration-degradation curve. A high value points to a less potent degrader. Regarding `COc1ccc([C@]2(CCN(Cc3ccc(C4=CCC(C(=O)N5CCN(Cc6ccc7c(c6)n(C)c(=O)n7C6CCC(=O)NC6=O)CC5)CC4)cc3F)CC(C)(C)C(F)(F)F)CCOC(C)(C)C2)cc1` (stereo partly drawn) [AT3, 3-[5-({4-[(3′-Fluoro-4′-{[{2-[(4R)-4-(4-methoxyphenyl)-2,2-dimethyltetrahydro-2H-pyran-4-yl]ethyl}(3,3,3-trifluoro-2,2-dimethylpropyl)amino]methyl}-2,3,4,5-tetrahydro[biphenyl]-4-yl)carbonyl]piperazin-1-yl}methyl)-3-methyl-2-oxo-2,3-dihydro-1H-benzimidazol-1-yl]piperidine-2,6-dione], it took 45 nM to inhibit growth in assay [1] by half (GI50). This molecule had a DC50 in assay [2] of 7.7 nM.

For `COc1ccc([C@]2(CCN(Cc3cc(F)c(C4=CCC(C(=O)N5CCN(Cc6ccc7c(c6)n(C)c(=O)n7C6CCC(=O)NC6=O)CC5)CC4)c(F)c3)CC(C)(C)C(F)(F)F)CCOC(C)(C)C2)cc1` (stereo partly drawn) [AU4, 3-[5-({4-[(2′,6′-Difluoro-4′-{[{2-[(4R)-4-(4-methoxyphenyl)-2,2-dimethyltetrahydro-2H-pyran-4-yl]ethyl)(3,3,3-trifluoro-2,2-dimethylpropyl)amino]methyl}-2,3,4,5-tetrahydro[biphenyl]-4-yl)carbonyl]piperazin-1-yl}methyl)-3-methyl-2-oxo-2,3-dihydro-1H-benzimidazol-1-yl]piperidine-2,6-dione], the GI50 in assay [1] was determined as 60 nM. In assay [2], this molecule yielded a DC50 of 9.3 nM.

For `COc1ccc([C@]2(CCN(Cc3ccc(C4=CCC(C(=O)N5CCN(Cc6ccc7c(c6)n(C)c(=O)n7C6CCC(=O)NC6=O)CC5)CC4)c(F)c3F)CC(C)(C)C(F)(F)F)CCOC(C)(C)C2)cc1` (stereo partly drawn) [AV2, 3-[5-({4-[(2′,3′-Difluoro-4′-{[{2-[(4R)-4-(4-methoxyphenyl)-2,2-dimethyltetrahydro-2H-pyran-4-yl]ethyl}(3,3,3-trifluoro-2,2-dimethylpropyl)amino]methyl}-2,3,4,5-tetrahydro[biphenyl]-4-yl)carbonyl]piperazin-1-yl}methyl)-3-methyl-2-oxo-2,3-dihydro-1H-benzimidazol-1-yl]piperidine-2,6-dione], the GI50 in assay [1] stood at 61 nM. Moreover, the DC50 in assay [2] stood at 7.4 nM.

The molecule `COc1ccc([C@]2(CCN(Cc3ccc(C4=CCC(CN5CCN(Cc6ccc7c(c6)n(C)c(=O)n7C6CCC(=O)NC6=O)CC5=O)CC4)cc3)CC(C)(C)C(F)(F)F)CCOC(C)(C)C2)cc1` (stereo partly drawn) [AX3, 3-[5-({4-[(4′-{[{2-[(4R)-4-(4-Methoxyphenyl)-2,2-dimethyltetrahydro-2H-pyran-4-yl]ethyl)(3,3,3-trifluoro-2,2-dimethylpropyl)amino]methyl}-2,3,4,5-tetrahydro[biphenyl]-4-yl)methyl]-3-oxopiperazin-1-yl}methyl)-3-methyl-2-oxo-2,3-dihydro-1H-benzimidazol-1-yl]piperidine-2,6-dione] displayed a GI50 in assay [1] of 61 nM. The molecule further showed a DC50 in assay [2] of 7.1 nM.

`COc1ccc([C@]2(CCN(Cc3ccc(C4=CCC(C(=O)N[C@H]5C[C@H](Nc6ccc7c(c6)n(C)c(=O)n7C6CCC(=O)NC6=O)C5)CC4)cc3)CC(C)(C)C(F)(F)F)CCOC(C)(C)C2)cc1` (stereo partly drawn) [AY8, N-(Trans-3-{[1-(2,6-dioxopiperidin-3-yl)-3-methyl-2-oxo-2,3-dihydro-1H-benzimidazol-5-yl]amino}cyclobutyl)-4′-{[{2-[(4R)-4-(4-methoxyphenyl)-2,2-dimethyltetrahydro-2H-pyran-4-yl]ethyl}(3,3,3-trifluoro-2,2-dimethylpropyl)amino]methyl}-2,3,4,5-tetrahydro[biphenyl]-4-carboxamide]: halving of growth in assay [1] (GI50) required 71 nM. Besides, half-maximal degradation in assay [2] (DC50) was put at 7.3 nM.

On to `COc1ccc([C@]2(CCN(Cc3ccc4nn(C5CC6(CCN(CC(=O)Nc7ccc8c(c7)n(C)c(=O)n8C7CCC(=O)NC7=O)CC6)C5)cc4c3)CC(C)(C)C(F)(F)F)CCOC(C)(C)C2)cc1` (stereo partly drawn) [AZ8, N-[1-(2,6-Dioxopiperidin-3-yl)-3-methyl-2-oxo-2,3-dihydro-1H-benzimidazol-5-yl]-2-[2-(5-{[{2-[(4R)-4-(4-methoxyphenyl)-2,2-dimethyltetrahydro-2H-pyran-4-yl]ethyl}(3,3,3-trifluoro-2,2-dimethylpropyl)amino]methyl}-2H-indazol-2-yl)-7-azaspiro[3.5]nonan-7-yl]acetamide], for which growth in assay [1] was halved (GI50) at 28 nM. Further, the DC50 in assay [2] amounted to 7 nM.

Molecule `COc1ccc([C@]2(CCN(Cc3ccc4c(cnn4C4CC5(CCN(CC(=O)Nc6ccc7c(c6)n(C)c(=O)n7C6CCC(=O)NC6=O)CC5)C4)c3)CC(C)(C)C(F)(F)F)CCOC(C)(C)C2)cc1` (stereo partly drawn) [BA6, N-[1-(2,6-Dioxopiperidin-3-yl)-3-methyl-2-oxo-2,3-dihydro-1H-benzimidazol-5-yl]-2-[2-(5-{[{2-[(4R)-4-(4-methoxyphenyl)-2,2-dimethyltetrahydro-2H-pyran-4-yl]ethyl)(3,3,3-trifluoro-2,2-dimethylpropyl)amino]methyl}-1H-indazol-1-yl)-7-azaspiro[3.5]nonan-7-yl]acetamide] registered a GI50 in assay [1] of 23 nM. For the same molecule, the DC50 in assay [2] is 4.9 nM.

`COc1ccc([C@]2(CCN(Cc3ccc(C4=C(F)CC(C(=O)N5CCN(Cc6ccc7c8c6CCCn8c(=O)n7C6CCC(=O)NC6=O)CC5)CC4)cc3)CC(C)(C)C(F)(F)F)CCOC(C)(C)C2)cc1` (stereo partly drawn) [BB7, 3-[7-({4-[(6-Fluoro-4′-{[{2-[(4R)-4-(4-methoxyphenyl)-2,2-dimethyltetrahydro-2H-pyran-4-yl]ethyl)(3,3,3-trifluoro-2,2-dimethylpropyl)amino]methyl}-2,3,4,5-tetrahydro[biphenyl]-4-yl)carbonyl]piperazin-1-yl}methyl)-2-oxo-5,6-dihydro-4H-imidazo[4,5,1-ij]quinolin-1(2H)-yl]piperidine-2,6-dione] displayed a GI50 in assay [1] of 62 nM. In assay [2], this molecule had a DC50 of 9 nM.

With `COc1ccc([C@]2(CCN(Cc3ccc(C4=CCC(CN5CCN(C(=O)c6ccc7c(n6)n(C)c(=O)n7C6CCC(=O)NC6=O)CC5)CC4)cc3)CC(C)(C)C(F)(F)F)CCOC(C)(C)C2)cc1` (stereo partly drawn) [BC6, 3-[5-({4-[(4′-{[{2-[(4R)-4-(4-Methoxyphenyl)-2,2-dimethyltetrahydro-2H-pyran-4-yl]ethyl}(3,3,3-trifluoro-2,2-dimethylpropyl)amino]methyl}-2,3,4,5-tetrahydro[biphenyl]-4-yl)methyl]piperazin-1-yl}carbonyl)-3-methyl-2-oxo-2,3-dihydro-1H-imidazo[4,5-b]pyridin-1-yl]piperidine-2,6-dione], in assay [1], the GI50 is 48 nM. The molecule further gave a DC50 in assay [2] of 6.2 nM.

In assay [1], `COc1ccc([C@]2(CCN(CC(C)(C)C(F)(F)F)C[C@H]3CC[C@H](c4ccc(NC(=O)C5CC(Nc6ccc7c(c6)n(C)c(=O)n7C6CCC(=O)NC6=O)C5)cc4)CC3)CCOC(C)(C)C2)cc1` (stereo partly drawn) [BD6, 3-{[1-(2,6-Dioxopiperidin-3-yl)-3-methyl-2-oxo-2,3-dihydro-1H-benzimidazol-5-yl]amino)-N-[4-(trans-4-{[{2-[(4R)-4-(4-methoxyphenyl)-2,2-dimethyltetrahydro-2H-pyran-4-yl]ethyl}(3,3,3-trifluoro-2,2-dimethylpropyl)amino]methyl}cyclohexyl)phenyl]cyclobutanecarbox amide] showed a GI50 of 57 nM. The molecule also registered a DC50 in assay [2] of 3 nM.

In assay [1], `COc1ccc([C@]2(CCN(CC3CC=C(c4ccc(NC(=O)C5CC(Nc6ccc7c(c6)n(C)c(=O)n7C6CCC(=O)NC6=O)C5)c(F)c4)CC3)CC(C)(C)C(F)(F)F)CCOC(C)(C)C2)cc1` (stereo partly drawn) [BE5, 3-{[1-(2,6-Dioxopiperidin-3-yl)-3-methyl-2-oxo-2,3-dihydro-1H-benzimidazol-5-yl]amino}-N-(3-fluoro-4′-{[{2-[(4R)-4-(4-methoxyphenyl)-2,2-dimethyltetrahydro-2H-pyran-4-yl]ethyl}(3,3,3-trifluoro-2,2-dimethylpropyl)amino]methyl}-2′,3′,4′,5′-tetrahydro[biphenyl]-4-yl)cyclobutanecarboxamide] returned a GI50 of 124 nM. In addition, the DC50 in assay [2] stood at 2.6 nM.

With `COc1ccc([C@]2(CCN(Cc3ccc(C4=CC[C@H](CN5CCN(C(=O)c6ccc7c8c6CCCn8c(=O)n7[C@H]6CCC(=O)NC6=O)CC5)CC4)cc3)CC(C)(C)C(F)(F)F)CCOC(C)(C)C2)cc1` [BF6, (3S)-3-{7-[(4-{[(4R)-4′-{[{2-[(4R)-4-(4-Methoxyphenyl)-2,2-dimethyltetrahydro-2H-pyran-4-yl]ethyl}(3,3,3-trifluoro-2,2-dimethylpropyl)amino]methyl}-2,3,4,5-tetrahydro[biphenyl]-4-yl]methyl}piperazin-1-yl)carbonyl]-2-oxo-5,6-dihydro-4H-imidazo[4,5,1-ij}quinolin-1(2H)-yl}piperidine-2,6-dione], halving of growth in assay [1] (GI50) required 75 nM. In addition, in assay [2], the DC50 came out at 10 nM.
